Values joined by “and” are separate entries in the source; they are usually repeats but may differ in a detail not shown here. Equal entries are not always repeated. Active and inactive are the calls of the source.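 The calls were made as follows: active = cell-killing curve crosses a set limit at a concentration no more than twice the top valid dose; inconclusive = flat curve with a 30 to 70% loss, or a poor fit; inactive = signal rising instead of falling, and the rest.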

The test system of this assay is TC71 Ewing sarcoma viability, CellTiter-Glo ATP, 72 h. In words: TC71 Ewing sarcoma cell killing, confirmation, luminescence, cherry-picked samples, retest (AID 720570).
Take `C[C@@H]1CN([C@@H](C)CO)C(=O)Cc2cc(N(C)C)ccc2O[C@H]1CN(C)Cc1ccc(C(=O)Nc2ccccc2N)cc1`: the AC35 was 13.1 µM.
To `COc1ccc(C2=NNC(=Nc3cc(S(=O)(=O)N(C)C)ccc3C)SC2)c(OC)c1` belongs 11.9 µM.
On to `C/C(=N\NC(=O)c1n[nH]c2c1CCC2)c1cccs1`, for which the AC35 was 20.2 µM.
To `C=C1C(=O)O[C@@H]2[C@H]1[C@@H](OC(=O)/C(C)=C/C)C/C(C)=C\C(=O)/C=C(\C)[C@@H]2O` belongs 9.79 µM; to `C[C@@H]1CN([C@@H](C)CO)C(=O)Cc2cc(NC(=O)Nc3ccc(C(F)(F)F)cc3)ccc2O[C@@H]1CN(C)Cc1ccc(C(=O)Nc2ccccc2N)cc1`, 10.4 µM.
In the case of `CN(C[C@H]1N[C@@H](CO)[C@@H]1c1ccc(C2=CCCC2)cc1)C(=O)c1cccc(F)c1`, the AC35 is 3.82 µM.
Turning to `C(=NNc1ccc2ccccc2n1)c1ccccn1`, the AC35 is 1.55 µM.
As for `CN(Cc1cnc2nc(N)nc(N)c2n1)c1ccc(C(=O)N[C@@H](CCC(=O)O)C(=O)O)cc1`, the AC35 was 0.0194 µM and 0.0201 µM.
To `C(=N\Nc1nc2ccccc2s1)/c1ccccn1` belongs 3.07 µM; to `Cc1cc(-c2nc3ccccc3s2)ccc1N`, 17.7 µM; to `COc1ccc(NC(=S)N=Nc2c(O)[nH]c3ccccc23)cc1`, 20.1 µM.
Under `CCN1C/C(=C/c2ccc(OC)c(O)c2)C(=O)/C(=C/c2ccc(OC)c(O)c2)C1` stands 22.9 µM.
To `O=C1NC(=O)N(Cc2ccco2)C(=O)/C1=C/C=C/c1ccco1` belongs 12.5 µM.
For `CCCCCCCCn1c2c(c(=N)c3c1CCC3)CCCC2`, the AC35 is 4.88 µM.
Take `CCCCCCCN(c1ccccc1)[C@@H]1C[C@H]2CCCC(=O)N3CC[C@@H](C1)[C@@H]23`: the AC35 is 1.95 µM.
Under `C=C1C(=O)OC2C1CCC(C)C1(O)C=CC(=O)C21C` (stereo unspecified) stands 12.6 µM.
To `N#C[C@H]1N[C@H](CO)[C@H]1c1ccc(C#Cc2ccc(F)cc2)cc1` belongs 18.3 µM; to `C[C@H]1CN([C@@H](C)CO)C(=O)c2cc(NS(=O)(=O)c3ccc(Cl)cc3)ccc2O[C@H]1CN(C)Cc1ccc(C(=O)Nc2ccccc2N)cc1`, 14.7 µM.
Under `CCc1ccc(/C=C2\SC(=S)N(CCCC(=O)NCCCN3CCOCC3)C2=O)cc1` stands 22.6 µM; under `COc1ccc(C(C)(O)c2nc(-c3cccc(F)c3)cs2)cc1` (stereo unspecified), 12.8 µM.
Regarding `O=C(Sc1cccc2cccnc12)c1ccccc1Br`, the AC35 was 10.5 µM.
Under `CCCC[C@@H]1Cc2[nH][nH]c(=O)c2[C@H](c2ccc3ccccc3c2)O1` stands 15.2 µM; under `C(=N\Nc1nc2ccccc2[nH]1)/c1ccccn1`, 4.84 µM.
In the case of `C[C@@H]1CN([C@@H](C)CO)C(=O)c2cccc(NC(=O)CCCCCC(=O)Nc3ccccc3N)c2O[C@@H]1CN(C)Cc1ccc(Oc2ccccc2)cc1`, the AC35 was 10.6 µM.
To `N#CC(C#N)=C1C=CC=CN1/C(=C\c1ccco1)C(=O)c1ccc(Cl)cc1` belongs 8.19 µM.
Under `C[C@H]1CN([C@@H](C)CO)C(=O)c2cc(N(C)C)ccc2O[C@H]1CN(C)Cc1ccc(C(=O)Nc2ccccc2N)cc1` stands 12.1 µM; under `OCC1OC(n2ccc3c2ncn2ncnc32)C(O)C1O` (stereo unspecified), 3.83 µM; under `CCc1ccc(Cn2ncc3c(C(=O)O)cc(C)nc32)cc1`, 20.8 µM.
To `CCCCCCCCNC(C)C(O)c1ccc(SC(C)C)cc1` (stereo unspecified) belongs 12.1 µM; to `COc1ccc(S(=O)(=O)N2CCCc3nc(-c4ccc(F)cc4)ccc32)cc1`, 7.3 µM; to `O=C(C[C@H]1C[C@H]2c3cc(NS(=O)(=O)c4ccc(F)cc4)ccc3O[C@H]2[C@H](CO)O1)NCc1ccc(Oc2ccccc2)cc1`, 10.8 µM.
For `C[C@H](CO)N1C[C@H](C)[C@@H](CN(C)Cc2ccc(Oc3ccccc3)cc2)Oc2ccc(NS(=O)(=O)c3ccc(Cl)cc3)cc2CC1=O`, the AC35 is 13 µM.
Under `COc1cccc(Sc2ccccc2/C=N/NC(N)=O)c1` stands 3.12 µM; under `CC(C)N1C/C(=C/c2ccsc2)C(=O)/C(=C/c2ccsc2)C1`, 14 µM.
To `C[C@H]1CN([C@@H](C)CO)C(=O)c2cc(NC(=O)C3CCCCC3)ccc2O[C@H]1CN(C)Cc1ccc(C(=O)Nc2ccccc2N)cc1` belongs 11.1 µM; to `Nc1nc2cc3c(cc2cc1C(=O)NCCc1c[nH]c2ccccc12)OCO3`, 13.7 µM; to `O=C(O)c1ccc(N/N=C/c2ccc3nccnc3c2)cc1`, 16.3 µM.
Under `Cc1nc(N)nc(N)c1-c1ccc(Cl)c(Cl)c1` stands 0.714 µM.
Regarding `CN=c1scc(-c2ccccc2F)n1/N=C/c1ccc(O)c(O)c1O`, the AC35 was 16.1 µM.
Under `COc1ccccc1NC(=O)N1[C@@H]2CNC[C@H]1[C@@H]2c1ccc(-c2ccc(C#N)cc2)cc1` stands > 23.5 µM (inactive); under `O=C(c1cccc(S(=O)(=O)NCc2ccccc2)c1)N1CCN(c2ccccc2)CC1`, 17.6 µM; under `COc1ccc(NC(=O)N2CCCCN3[C@H](CO)[C@H](c4ccc(C#CCC(C)C)cc4)[C@H]3C2)cc1`, 12.2 µM.
To `CN1C2CCC1/C(=C/c1ccccn1)C(=O)/C2=C\c1ccccn1` belongs 1.43 µM; to `O=C(O)c1ccc(N/N=C/c2ccc3c(c2)OCO3)cc1`, 9.45 µM.
To `COc1ccc(CC(N)c2csc(NC(=O)Nc3cccc(C(F)(F)F)c3)n2)cc1` (stereo unspecified) belongs 19.1 µM; to `CC(=O)OC1CC(OC2C(O)CC(OC3C(O)CC(OC4CCC5(C)C(CCC6C5CCC5(C)C(C7=CC(=O)OC7)CCC65O)C4)OC3C)OC2C)OC(C)C1OC1OC(CO)C(O)C(O)C1O` (stereo unspecified), 0.258 µM; to `CN(C)c1ncnc2c1ccn2C1OC(CO)C(O)C1O` (stereo unspecified), 7.06 µM.
Regarding `COc1ccc(S(=O)(=O)N2CC[C@@H]3[C@H](CO)Nc4ccc(-c5ccc(C#N)cc5)cc4[C@@H]32)cc1`, the AC35 was 4.88 µM.
As to `O=C1/C(=C\c2ccccc2)CN(C(=O)CCN2CCCCC2)C/C1=C/c1ccccc1`, the AC35 was 4.22 µM.
Under `COc1cc(-c2coc3c(C(=O)NCc4ccc(C(F)(F)F)cc4)cccc23)ccc1O` stands 4.09 µM.
Under `C[C@H](CO)N1C[C@H](C)[C@@H](CN(C)Cc2ccc(C(F)(F)F)cc2)OCCCC[C@H](C)Oc2ccc(NS(=O)(=O)c3ccc(F)cc3)cc2C1=O` stands 17.3 µM; under `COc1cc(-c2cnc3c(NC=O)cc(-c4cccc(NC(C)=O)c4)cn23)cc(OC)c1OC`, 0.385 µM.
To `CCc1nc(N)nc(N)c1-c1ccc(Cl)cc1` belongs 6.12 µM; to `O=c1[nH]c(=O)n([C@H]2C[C@H](O)[C@@H](CO)O2)cc1C(F)(F)F`, 2.91 µM.
`O=C(C[C@@H]1C[C@H]2c3cc(NS(=O)(=O)c4ccc(F)cc4)ccc3O[C@H]2[C@H](CO)O1)NCc1ccc(-c2ccccc2)cc1`: the AC35 is 1.91 µM.
Take `CC1(C)N=C(N)N=C(N)N1c1ccc(CCCCc2ccccc2)cc1`: the AC35 is 1.39 µM.
To `CC(=O)Nc1cccc(-c2ccnc3c2CC(C)(C(=O)NCc2ccc(N(C)C)cc2)O3)c1` (stereo unspecified) belongs 7.01 µM.
Under `C[C@H]1CN([C@@H](C)CO)S(=O)(=O)c2ccc(C#Cc3ccncc3)cc2O[C@@H]1CN(C)C(=O)Nc1ccc2c(c1)OCO2` stands 4.14 µM.
To `N/C(=C\C(=O)c1cc(Cl)ccc1O)C(Cl)(Cl)Cl` belongs 9.12 µM; to `CCN1/C(=C/C(C)=C/c2sc3ccccc3[n+]2CC)Sc2ccccc21`, 0.951 µM.
Take `COC(=O)CC1(C(=O)OC)Oc2ccc(Br)cc2C(=O)N1c1cccc(Cl)c1Cl` (stereo unspecified): the AC35 is 24.9 µM.

Source of the values: PubChem BioAssay AID720570 (Broad Institute, 2013).
